Test results published in patent US20240082416A1, “AMATOXIN ANALOGS AND USES THEREOF” (THE UNIVERSITY OF BRITISH COLUMBIA, priority 2020, published 2024).
Values joined by “and” are separate entries in the source; they are usually repeats but may differ in a detail not shown here. Equal entries are not always repeated. Starred links: 1 amine or outer side, 2 acyl side, 3 side chain; linkers in the order of their positions; H or OH if unused. Positions of bridges follow the written chain, without caps; N, C: chain ends. Non-standard residues stand in square brackets, D forms with d. Residues, ends and D or L forms follow the SMILES beside them. X4 = CC(C)(C)OC(=O)/N=C(\N)N[C@@H]1C[C@@H](C(=O)[*:2])N([*:1])C1; Trp(2-yl) = O=C([C@H](Cc1c([*:3])[nH]c2ccccc12)N[*:1])[*:2]; X2 = [N-]=[N+]=N[C@@H]1C[C@@H](C(=O)[*:2])N([*:1])C1; Ile(4R-OH,5-OH) = C[C@H]([C@H](N)C(=O)O)[C@@H](O)CO; X3 = CC(=O)NCS[C@@H]1C[C@@H](C(=O)[*:2])N([*:1])C1

How the values were obtained:
[1] = Viability assay against CHO cells (MTT colorimetric assay); format: cell-based, Chinese hamster; conditions: Chinese hamster, CHO cells, 72 h, replicates n = 1, 2, 3, read-out: % viable cells; for viability at 72 h, 1.25e-06 M: 1.25e-006 M; for viability at 72 h, 1.56e-07 M: 1.56e-007 M; for viability at 72 h, 2.5e-06 M: 2.5e-006 M; for viability at 72 h, 5e-06 M: 5e-006 M; for viability at 72 h, 6.25e-07 M: 6.25e-007 M
Procedure: (§1) (f) Cell culture: Cells were cultured in Minimum Essential Medium Eagle—Alpha Modification (α-MEM) or […] Dulbecco's Modified Eagle Medium (DMEM), purchased from Gibco. […] All cell culture plastic ware was obtained from Coming or Falcon. Cells were cultured at 37° C. in a humidified chamber with 5% CO2. When used in cell culture, DMSO was purified by filtration through a […] filter. All experiments were carried out in a laminar flow culture cabinet, unless otherwise noted.
(§2) Immortalized CHO cells had been stored in liquid nitrogen. To revive cells, a 1-mL tube of the frozen cells in medium containing 10% DMSO was warmed in a 30° C. water bath and diluted with 9 mL of fresh media. Media contained 10% FBS and 100 U/mL penicillin and […] streptomycin, unless otherwise indicated. The cells were incubated in a T-25 flask at 37° C. at 5% CO2. After 24 hours, the medium was aspirated and replaced with fresh medium. When cells reached a level of 90-100% confluence, they were sub-cultured. […] Once the cells were detached from the tissue culture flask, 3-5 mL media was added to quench the trypsin and the mixture was transferred to a 10 mL centrifuge tube. The mixture was centrifuged for 5 min at […], and the supernatant was discarded. The cells were suspended in fresh medium, diluted as required, and transferred to a new culture flask.
(§3) To assay cell viability, a nearly confluent tissue culture flask was trypsinized, and the cells were counted following treatment with Trypan blue, using a hemocytometer. The cells were then diluted to the appropriate stock concentrations in fresh medium and transferred in 100 μL to a 96-well plate using a multi-channel pipette. The number of cells plated varied from experiment to experiment. These were incubated at 37° C. and 5% CO2 for a 24-hour period to allow for adherence. The medium was aspirated, and fresh medium was added, which contained the desired additives in DMSO. The cells were then re-incubated for 72 h. At the completion of the experiment, a 100 μL aliquot of 25 mg/mL MTT in phosphate-buffered saline (PBS) was added to each well. The plate was incubated three hours further to allow for the formation of the formazan product in viable cells. The media was carefully aspirated, and the purple product was solubilized in DMSO. […] Data was processed in Microsoft Excel and GraphPad Prism. Experiments were performed in triplicates unless otherwise noted, and the error bars were calculated as the standard error of the mean.
(§4) Each cell line was plated in a 96-well plate, with 100 μL of the stock solution per well (5000 cells per well) and incubated for 24 hours. […] The cells were incubated for 72 hours, at which point viability was assessed as described.

CHO cells = test: as above; format: cell-based, Chinese hamster; conditions: 72 h, replicates n = 1, 2, 3
Procedure: as §1, §2, §3, §4

Pol II = biological target: T1, Pol II (Homo sapiens, UniProt P24928); test: In vitro transcription runoff assay using HeLaScribe nuclear extract; format: biochemical; conditions: for IC50: IC50 (nM), Table 12, n = 3, high values estimated from activity at [I]=1.0 μM; for inhibitory effects: up to 1 μM concentrations
T1 construct: HeLaScribe® nuclear extract containing Pol II and all other transcription factors; purchased Promega; host or cells: HeLa nuclear extract (endogenous protein)
Description: (h) In vitro transcription assay of synthetic amanitins containing analogs of Hyp: Primers were purchased from IDT via standard phosphoramidite chemistry. dNTP and rNTP were purchased from Thermofisher. GoTaq polymerase and HeLaScribe*Nuclear Extract in vitro Transcription System was purchased from Promega. Taq polymerase was purchased from NEB. [^32P] α-dGTP (3000 Ci/mmol 10 mCi/ml EasyTide) and [^32P] α-GTP (3000 Ci/mmol 10 mCi/ml EasyTide) were purchased from Perkin Elmer. QIAquick PCR purifcation kit was purchased from Qiagen. AcGFP1-N1 was a gift (Addgene plasmid #54705; http://n2t.net/addgene:54705; RRID:Addgene_54705). DNA Primer sequences were:
The DNA template for transcription runoff was synthesized by PCR with template pAcGFP-N1, and primers P1 and P2. To a final volume of 20 μL, 1 x GoTaq Buffer, 250 μM of each dNTP, 500 nM of each primers P1 and P2, […] pAcGFP-N1 and 0.05 U/μL GoTaq were employed to thermocycle for 30 cycles (30 s at 95° C., 30 s at 50° C. and 60 s at 72° C., Bio-Rad). A 1 μL aliquot of the amplified solution was resolved with 6×DNA loading dye in a 1% agarose gel containing […] and then visualized using GelDoc XR imager (Bio-Rad). Purification was completed via QIAquick PCR purification kit (Qiagen). The radioactive chromatographic standard was synthesized by PCR with template pAcGFP-N1, and primers P3 and P4. To a final volume of 50 μL, 1 x Thermopol Buffer, 200 μM of each dNTP, 500 nM of each primers P3 and P4, 10 pg/μL pAcGFP-N1 and 0.02 U/μL Vent polymerase, 1 μL [^32P] α-dGTP were employed to thermocycle for 30 cycles (30 s at 95° C., 30 s at 62° C. and 30 s at 72° C., Bio-Rad). A 1 μL aliquot of the amplified solution was resolved with 6×DNA loading dye in 8% denaturing PAGE and then visualized by autoradiography via the Typhoon 9200 imager (Molecular namics-Amersham-GE). Purification was completed via QIAquick PCR purification kit (Qiagen). The transcription runoff assay was modified from HeLaScribe® Nuclear Extract in vitro Transcription System (Promega). […]. The pellet was resolved by 8% denaturing PAGE and then visualized by autoradiography via the Typhoon 9200 imager (Molecular dynamics-Amersham-GE). Dosimetry was calculated by ImageJ, and the 3 parameter logistic fit was completed by Origin 2019 (OriginLab). […]
All data were presented in mean±standard deviation (n=3).

[2] = Cell viability assay (BrdU incorporation) on HEK293-OATP1B3 cells; format: cell-based, human; conditions: human, HEK293 cells overexpressing OATP1B3 (HEK293-OATP1B3); highest used concentration of 1 μM; HEK293-OATP1B3 cells
Procedure: . HEK293 and HEK-OATP1B3 cells were plated at 2.5×10^3 cells/well in a 1:1 mixture of Ham's F12 with DMEM containing 10% charcoal-stripped fetal calf serum (FCS) onto poly-D-lysine-coated 96-well plates and grown for 24 hours. Subsequently, cells were incubated with amanitin analogs at 8 different concentrations (1×10^−6 M to 1.28×10^−11 M, serial 1:5 dilutions). Following 96 h of drug exposure, cell viability was determined by a BrdU incorporation assay (Cell Proliferation ELISA, BrdU, Roche) and chemiluminescence was measured using a FLUOstar Optima plate reader (BMG LABtech). Data analysis was performed with GraphPad Prism 8 (GraphPad Software, Inc., La Jolla, CA) software to plot curve fits.

Molecule `CC[C@H](C)[C@@H]1NC(=O)CNC(=O)[C@@H]2Cc3c([nH]c4ccccc34)SC[C@H](NC(=O)CNC1=O)C(=O)N[C@@H](CC(N)=O)C(=O)N1C[C@H](N=[N+]=[N-])C[C@H]1C(=O)N[C@@H]([C@@H](C)[C@@H](O)CO)C(=O)N2` [Compound 3, N3-Pro-amanitin] (cyclo(CN[X2][Ile(4R-OH,5-OH)][Trp(2-yl)]GIG); thioether 1-5) has a viability at 72 h, 1e-05 M ([1]; 1e-005 M) of 107%, a viability at 72 h, 1.25e-06 M [1] of 105% and a viability at 72 h, 1.56e-07 M [1] of 101%. For the same molecule, the viability at 72 h, 2e-05 M ([1]; 2e-005 M) was 112%, the viability at 72 h, 2.5e-06 M [1] was 104% and the viability at 72 h, 3.125e-07 M ([1]; 3.125e-007 M) was 99%. The viability at 72 h, 5e-06 M [1] was 104%, the viability at 72 h, 6.25e-07 M [1] was 101% and the “% viable cells” value (CHO cells; 1e-005 M, listed as N3-Pro-amanitin (3)) was 100% and 94%. The “% viable cells” value (CHO cells; 1.25e-006 M, listed as N3-Pro-amanitin (3)) was 88% and 89%, the “% viable cells” value (CHO cells; 1.56e-007 M, listed as N3-Pro-amanitin (3)) was 89% and 88% and the “% viable cells” value (CHO cells; 2.5e-006 M, listed as N3-Pro-amanitin (3)) was 95% and 88%. The “% viable cells” value (CHO cells; 3.125e-007 M, listed as N3-Pro-amanitin (3)) was 89% and 91%, the “% viable cells” value (CHO cells; 5e-006 M, listed as N3-Pro-amanitin (3)) was 88% and 89% and the “% viable cells” value (CHO cells; 6.25e-007 M, listed as N3-Pro-amanitin (3)) was 93% and 87%. The IC50 (Pol II) was > 1000 nM, the “inhibitory effects” value (Pol II) was “did not exhibit any noticeable inhibitory effects” and the viability at 96 h, 1 µM [2] was 68%.
For `CC[C@H](C)[C@@H]1NC(=O)CNC(=O)[C@@H]2Cc3c([nH]c4ccccc34)SC[C@H](NC(=O)CNC1=O)C(=O)N[C@@H](CC(N)=O)C(=O)N1C[C@H](SCNC(C)=O)C[C@H]1C(=O)N[C@@H]([C@@H](C)[C@@H](O)CO)C(=O)N2` [Compound 8, SAcm-Pro-amanitin] (cyclo(CN[X3][Ile(4R-OH,5-OH)][Trp(2-yl)]GIG); thioether 1-5), the “% viable cells” value (CHO cells; 1e-005 M, listed as SAcm-Pro-amanitin (8)) was 90% and 99%, the “% viable cells” value (CHO cells; 1.25e-006 M, listed as SAcm-Pro-amanitin (8)) was 85% and 92% and 106% and the “% viable cells” value (CHO cells; 1.56e-007 M, listed as SAcm-Pro-amanitin (8)) was 94% and 93% and 113%. For the same molecule, the “% viable cells” value (CHO cells; 2e-005 M, listed as SAcm-Pro-amanitin (8)) was 110% and 105% and 99%, the “% viable cells” value (CHO cells; 2.5e-006 M, listed as SAcm-Pro-amanitin (8)) was 87% and 92% and 105% and the “% viable cells” value (CHO cells; 3.125e-007 M, listed as SAcm-Pro-amanitin (8)) was 88% and 93% and 110%. For the same molecule, the “% viable cells” value (CHO cells; 5e-006 M, listed as SAcm-Pro-amanitin (8)) was 86% and 89%, the “% viable cells” value (CHO cells; 6.25e-007 M, listed as SAcm-Pro-amanitin (8)) was 93% and 90% and 108% and the IC50 (Pol II) was > 1000 nM.
Work on `CC[C@H](C)[C@@H]1NC(=O)CNC(=O)[C@@H]2Cc3c([nH]c4ccccc34)SC[C@H](NC(=O)CNC1=O)C(=O)N[C@@H](CC(N)=O)C(=O)N1C[C@H](N/C(N)=N/C(=O)OC(C)(C)C)C[C@H]1C(=O)N[C@@H]([C@@H](C)[C@@H](O)CO)C(=O)N2` [Compound 9, Boc-Gdn-Pro-amanitin] (cyclo(CN[X4][Ile(4R-OH,5-OH)][Trp(2-yl)]GIG); thioether 1-5) yielded a viability at 72 h, 1.25e-06 M [1] of 84%, a viability at 72 h, 1.56e-07 M [1] of 87% and a viability at 72 h, 2.5e-06 M [1] of 86%. For the same molecule, the viability at 72 h, 3.9e-08 M ([1]; 3.9e-008 M) was 88%, the viability at 72 h, 5e-06 M [1] was 86% and the viability at 72 h, 6.25e-07 M [1] was 84%. For the same molecule, the viability at 72 h, 7.8e-08 M ([1]; 7.8e-008 M) was 85%, the “% viable cells” value (CHO cells; 1e-005 M, listed as Boc-Gdn-Pro-amanitin (9)) was 103% and 98% and 119% and the “% viable cells” value (CHO cells; 1.25e-006 M, listed as Boc-Gdn-Pro-amanitin (9)) was 89% and 100%. For the same molecule, the “% viable cells” value (CHO cells; 1.56e-007 M, listed as Boc-Gdn-Pro-amanitin (9)) was 97%, the “% viable cells” value (CHO cells; 2.5e-006 M, listed as Boc-Gdn-Pro-amanitin (9)) was 100% and the “% viable cells” value (CHO cells; 3.125e-007 M, listed as Boc-Gdn-Pro-amanitin (9)) was 82% and 90% and 103%. For the same molecule, the “% viable cells” value (CHO cells; 3.9e-008 M, listed as Boc-Gdn-Pro-amanitin (9)) was 102%, the “% viable cells” value (CHO cells; 5e-006 M, listed as Boc-Gdn-Pro-amanitin (9)) was 104% and the “% viable cells” value (CHO cells; 6.25e-007 M, listed as Boc-Gdn-Pro-amanitin (9)) was 102%. For the same molecule, the “% viable cells” value (CHO cells; 7.8e-008 M, listed as Boc-Gdn-Pro-amanitin (9)) was 101%, the IC50 (Pol II) was > 600 nM and the “inhibitory effects” value (Pol II) was “did not exhibit any noticeable inhibitory effects”.
